Source: patent US6369101B1, “Therapeutic method to treat herpes virus infection” (Regents of the University of Minnesota, priority 1999, dated 2002)
In brackets after ≈: the same amount, converted by molar mass. Like-named read-outs stand apart in the source and are kept apart here.

Columns and labels:
[1] = system: Human Cytomegalovirus; assay: CPE inhibition in stationary cells (visual), HCMV in HFF cells; type: cell-based
[2] = system: Epstein-Barr Virus; assay: VCA expression in EBV-infected Daudi cells
From the text: Raji is a Burkitt's lymphoma cell line containing 60 EBV genome/cell, and was the primary cell used for screening antiviral activity against EBV early antigen (EA) expression. […] It spontaneously expresses EBV EA in 0.25-0.5% of the cells. It was used in follow-up studies to confirm activity. These cell lines respond to superinfection by EBV by expressing EA-diffuse component EA (D), EA restricted component EA (R), and viral capsid antigen (VCA). […] The cultures were fed twice weekly and the cell concentration was adjusted to 3×10^5/ml. The cells were kept at 37° C. in humidified atmosphere with 5% CO2.
Cells were infected with the P3HR-1 strain of HBV and the test compound was added after adsorption (45 minutes at 37° C.) and washing of the cell cultures. The cultures were incubated for two days in complete medium to allow viral gene expression. Following the 48 hours of incubation, the numbers of cells of each sample was counted and smears were made. Monoclonal antibodies to the different EA components and VCA were then added to the cells and then incubated and washed. This is followed by a fluorescein conjugated rabbit anti-mouse IgG antibody, and the number of fluorescence cells in the smear were counted. The total number of cells in the cultures positive for EA or VCA were then calculated and compared.

[3] = system: HSV-1 strain F; assay: CPE inhibition, HSV-1 strain F in HEp-2 cells; note: key: +++ = Complete cytopathic effect; ++ = Moderate cytopathic effect; + = Minimum cytopathic effect; − = No cytopathic effect; type: cell-based, herpes simplex virus type 1; details: conc. per compound (ng/ml)
From the text: (§1) Human laryngeal epithelial carcinoma cells (HEp-2, ATCC, Rockville, Md.) were used for testing of antiviral compounds by cytopathic effect (CPE) inhibition and plaque reduction assay. Primary human foreskin fibroblast cells (HFF) obtained from Dr. E. R. Kern (Department of Pediatrics, University of Alabama Medical School, 309 Bevill Biomedical Research Building, 845 19th Street South, Birmingham, Ala., 35294-2170), were used for cytopathic effect (CPE) inhibition assay. HEp-2, African green monkey kidney cells (Vero, ATCC), HFF and primary rabbit kidney cells were used to determine the cytotoxic effect of compounds of formula I. These cells were propagated in Dulbeco's modified Eagle's medium (DMEM) (Sigma, USA) supplemented with 10% inactivated fetal calf serum (FCS), 25 mM HEPES, 0.2% sodium bicarbonate and 1% penicillin/-streptomycin at 37° C. in the presence of 5% CO2.
(§2) The antiviral activity of the test compounds was determined against HSV-1 strain F, HSV-2 strain G (ATCC), HSV-1 strain E-377 and HSV-2 strain MS (Dr. E. R. Kern, see above), CMV strain AD 169 (NIH), HCMV (NIH), MCMV (NIH), and VZV strain Ellen (NIH). Highly infective virus stocks of HSV-1 and HSV-2 were prepared by infecting a confluent monolayer of HEp-2 (ATCC) or HFF in 150 cm^2 plastic tissue culture flasks (Falcon, USA) at a multiplicity of infection of 0.5 in DMEM supplemented with 10% inactivated fetal calf serum and 1% penicillin/streptomycin at 37° C. in the presence of 5% CO2. The infected cells were disrupted through three freeze/thaw cycles, and viruses were clarified from large cell debris by low speed centrifugation at 3000 rpm for 10 minutes. The virus suspension was separated, aliquoted and stored at −80° C. until assayed or used for animal infection. The stock HSV-1 (E377) and HSV-2 (MS strain) contained 3.5×10^8 and 1.1×10^7 pfu/ml respectively.
(§3) Low passage HFF cells were seeded into 96-well tissue culture plates 24 hours prior to use at a cell concentration of 2.5×10^4 cells per ml in 0.2 ml of DMEM supplemented with 10% fetal calf serum. After 24 hours of incubation at 37° C. in the presence of 5% CO2, medium was removed and the test compounds were diluted two-fold in DMEM in the 96-well tissue culture plate containing monolayer. […] For both HSV-1 and HSV-2 assays, the virus concentration utilized was 1000 pfu/ml and for HCMV, MCMV, and VZV assay 2500 pfu/ml were used. The plates were then incubated at 37° C. in the presence of 5% CO2 for two to three days for HSV-1 and HSV-2, 10 days for VZV and 14 days for HCMV and MCMV. The virus induced cytopathic effect (CPE) was monitored microscopically every day. CPE of HSV-1 was recognized by cell rounding and clumping, while HSV-2 formed large syncytia along with rounding and clumping of cells. […] EC50s were estimated from graphical plots of percent CPE against the concentration of the test compounds. The EC50s for each compound are the mean of EC50s for three or more independent experiments. After three days of incubation period, media was aspirated and the cells stained with a 0.1% crystal violet solution for 30 minutes. The stain was then removed and the plates were rinsed with tap water, air dried and retained.

[4] = system: Varicella-Zoster Virus; assay: CPE inhibition in stationary cells (visual), VZV in HFF cells; type: cell-based
[5] = system: HSV-1 (strain F); assay: Plaque reduction assay, HSV-1 strain F in HEp-2 cells; type: cell-based, herpes simplex virus type 1; details: conc. per compound as in column Conc. (ng/ml), HSV-1 virus control 5
Procedure: (§4) HEp-2 cells were grown to monolayer in 24 well tissue culture plates in DMEM containing 10% fetal calf serum at 37° C. for 24-36 hours in the presence of 5% CO2. The monolayer of HEp-2 cells was infected with 0.1 ml of HSV- 1 (strain F) or HSV-2 (strain G) containing 100 pfu. The viruses were allowed to adsorb for 1 hour at 37° C. in the presence of 5% CO2. All wells containing virus infected cells except virus control were overlaid with 0.9 ml of DMEM and 1 ml of test compound. The virus control and cell control received DMEM only. All microtiter plates were incubated at 37° C. in the presence of 5% CO2 and observed twice daily for 72 hours for viral CPE. At the end of the experiment, plates were stained with 0.1% crystal violet and the results were quantified by counting plaque forming units.

[6] = system: HSV-2 strain G; assay: CPE inhibition, HSV-2 strain G in HEp-2 cells; note: key: +++ = Complete cytopathic effect; ++ = Moderate cytopathic effect; + = Minimum cytopathic effect; − = No cytopathic effect; type: cell-based, herpes simplex virus type 2; details: conc. per compound (ng/ml)
From the text: as §1, §2, §3

[7] = system: Primary human foreskin fibroblast cells (HFF); assay: Cell proliferation assay (cytotoxicity) in HFF cells; type: cell-based
Procedure: as §1, with “Primary human foreskin fibroblast cells (HFF) obtained from Dr. E. R. Kern (Department of Pediatrics, University of Alabama Medical School, 309 Bevill Biomedical Research Building, 845 19th Street South, Birmingham, Ala., 35294-2170), were used for cytopathic effect (CPE) inhibition assay.” left out
(§5) HFF, Vero and HEp-2 cells were seeded in 24-well tissue culture plates at a concentration of […] in DMEM containing 10% FCS and incubated for 24 hours at 37° C. in the presence of 5% CO2. To the monolayer of these cells 0.5, 1.0, 1.5 and 2.0 ml of solution of antiviral compounds were added in the respective wells in duplicate and the cells were then incubated in a 5% CO2 incubator at 37° C. for 72 hours. The cells were observed daily for any change in morphology. […] At the end of this time, the media-drug solution was removed and the cells washed. One ml of 0.25% trypsin was added to each well and incubated until the cells start to come off of the plate. The cells-media mixture was then pipetted up and down several times to resuspend the cells and 0.2 ml of the cell suspension was added to 9.8 ml of trypan blue and cells were counted using hemocytometer. Each sample was counted three times with three replicate wells per sample.

[8] = system: Human laryngeal epithelial carcinoma cells (HEp-2); assay: Cytotoxicity in HEp-2 cells; type: cell-based
Procedure: as §1, with “Primary human foreskin fibroblast cells (HFF) obtained from Dr. E. R. Kern (Department of Pediatrics, University of Alabama Medical School, 309 Bevill Biomedical Research Building, 845 19th Street South, Birmingham, Ala., 35294-2170), were used for cytopathic effect (CPE) inhibition assay.” left out
as §5

[9] = system: Daudi cells; assay: CC50 in Daudi cells (Table 3); type: cell-based
Procedure: (§8) Raji is a Burkitt's lymphoma cell line containing 60 EBV genome/cell, and was the primary cell used for screening antiviral activity against EBV early antigen (EA) expression. Daudi is a low level producer that contains 152 EBV genome copies/cell. It spontaneously expresses EBV EA in 0.25-0.5% of the cells. It was used in follow-up studies to confirm activity. […] All cell lines were maintained in RPMI-1640 medium supplemented with 10% FCS, L-glutamine and 100 μg/ml gentamicin. The cultures were fed twice weekly and the cell concentration was adjusted to 3×10^5/ml. The cells were kept at 37° C. in humidified atmosphere with 5% CO2.

[10] = system: HSV-2 strain MS; assay: CPE inhibition assay, HSV-2 MS in human foreskin fibroblast cells; type: cell-based, herpes simplex virus type 2; details: CPE inhibition in HFF cells
Procedure: (§6) Stock solutions of the compounds used for the testing of antiviral activity against HSV-1 and HSV-2 were prepared in distilled water, filtered through 0.2 μm filter (Acrodisco®, Gelman Sciences, USA) and stored at room temperature until used.
as §1, §2, §3

[11] = system: HSV-1 strain E-377; assay: CPE inhibition assay, HSV-1 E377 in human foreskin fibroblast cells; type: cell-based, herpes simplex virus type 1; details: CPE inhibition in HFF cells
Procedure: as §6, §1, §2, §3

[12] = system: HSV-2 (strain G); assay: Plaque reduction assay, HSV-2 strain G in HEp-2 cells; type: cell-based, herpes simplex virus type 2; details: conc. per compound (ng/ml) (Acyclovir 250), HSV-2 virus control 47
Procedure: as §4

[13] = CC50 in HFF cells (Table 3); type: cell-based, human; details: human
Procedure: (§7) The cells were observed daily for any change in morphology. The rounding and lysis of cells were observed if the compound has cytotoxic effect. At the end of this time, the media-drug solution was removed and the cells washed. […] The cells-media mixture was then pipetted up and down several times to resuspend the cells and 0.2 ml of the cell suspension was added to 9.8 ml of trypan blue and cells were counted using hemocytometer. Each sample was counted three times with three replicate wells per sample.

[14] = CC50 in Daudi cells (Table 3); type: cell-based; details: human
Procedure: as §8

[15] = system: Mouse Cytomegalovirus; assay: CPE inhibition in stationary cells (visual), MCMV in MEF cells; type: cell-based; details: test compounds in DMSO
[16] = CC50 in MEF cells (Table 3); type: cell-based; details: Mouse Cytomegalovirus section of Table 3
[17] = system: HFF cells; assay: CC50 in HFF cells (Table 3); type: cell-based, human; details: HFF cells
Procedure: as §7

[18] = system: MEF cells; assay: CC50 in MEF cells (Table 3); type: cell-based; details: Mouse Cytomegalovirus section of Table 3
[19] = Epstein-Barr Virus, Daudi cells, VCA, test compounds in DMSO
[20] = Human betaherpesvirus 5, test compounds in DMSO, read-out: EC50
[21] = human gammaherpesvirus 4, Daudi
[22] = Human alphaherpesvirus 3, test compounds in DMSO, read-out: EC50
[23] = HFF cells, Human Cytomegalovirus section of Table 3, read-out: CC50
[24] = HEp-2 cells, conc. per compound (ng/ml)
[25] = Human Cytomegalovirus section of Table 3
[26] = Varicella-Zoster Virus section of Table 3
[27] = Daudi cells, Epstein-Barr Virus section of Table 3

Compound | EC50 ([1]; test compounds in DMSO) | EC50 [2, 19] | Cytopathic Effect (CPE) Inhibition HSV-1 Strain F [3] | EC50 ([4]; test compounds in DMSO) | Cytopathic Effect (CPE) Inhibition HSV-2 Strain G [6] | EC50 HSV-2 MS [10] | EC50 HSV-1 E377 [11] | Plaque Reduction Assay Average pfu/10^5 Cells HSV-2 Strain G [12] | EC50 [1, 20] | EC50 [2, 21] | EC50 [4, 22] | CC50 at 72 h [13, 23] | Cell Cytotoxicity [8, 24] | CC50 [17, 25] | CC50 [17, 26] | CC50 [9, 27] | further results
C[C@H]1[C@H](C)CC[C@]2(CO)CC[C@]3(C)C(=CC[C@@H]4[C@@]5(C)CC[C@H](O)C(C)(C)[C@@H]5CC[C@]43C)[C@H]12 [Uvaol] | >0.1 µg/mL | 0.00031 µg/mL (≈ 0.0007 µM) | ++ | >0.02 µg/mL | ++ | >0.25 µg/mL | >0.25 µg/mL | 28 pfu/10^5 Cells |  |  |  |  |  |  |  |  | Plaque Reduction Assay Average pfu/10^5 Cells HSV-1 Strain F [5]: 0 pfu/10^5 Cells; CC50 [7]: 0.125 µg/mL (≈ 0.282 µM); Cell Cytotoxicity [8]: −; CC50 [9]: 0.0443 µg/mL (≈ 0.1 µM)
C[C@H]1[C@H](C)CC[C@]2(C(=O)O)CC[C@]3(C)C(=CC[C@@H]4[C@@]5(C)CC[C@H](O)C(C)(C)[C@@H]5CC[C@]43C)[C@H]12 [Ursolic acid] |  |  | ++ |  | ++ |  |  | 33 pfu/10^5 Cells | > 0.1 µg/mL | 0.0485 µg/mL (≈ 0.106 µM) | > 0.0008 µg/mL | > 0.1 µg/mL | − |  |  |  | CC50 at 72 h ([13]; HFF cells, Varicella-Zoster Virus section of Table 3, read-out: CC50): 0.0029 µg/mL (≈ 0.00635 µM); CC50 ([14]; Daudi cells, Epstein-Barr Virus section of Table 3, read-out: CC50): > 0.05 µg/mL
Nc1nc(O)c2ncn(COC(CO)CO)c2n1 [Ganciclovir ®, Ganciclovir, reference compound] |  |  |  |  |  |  |  |  | 0.1 µg/mL (≈ 0.392 µM) |  |  | > 100 µg/mL |  |  |  |  | EC50 ([15]; read-out: EC50): 0.9 µg/mL (≈ 3.53 µM); CC50 [16]: > 100 µg/mL
C=C(C)[C@@H]1CC[C@]2(COP(=O)(O)O)CC[C@]3(C)[C@H](CC[C@@H]4[C@@]5(C)CC[C@H](OP(=O)(O)O)C(C)(C)[C@@H]5CC[C@]43C)[C@@H]12 [Betulin diphosphate] |  |  |  |  |  |  |  |  |  | 0.00039 µg/mL | > 0.1 µg/mL |  |  |  |  |  | CC50 at 72 h ([13]; CC50): > 0.1 µg/mL; CC50 [14]: > 0.05 µg/mL
Betulin succinate | 0.0039 µg/mL | >0.05 µg/mL |  | >0.02 µg/mL |  |  |  |  |  |  |  |  |  | 0.0969 µg/mL | 0.0688 µg/mL | >0.05 µg/mL | EC50 [15]: >0.004 µg/mL; CC50 [18]: 0.014 µg/mL
C[C@@H]1O[C@@H](O[C@H]2[C@H](O[C@H]3CC[C@@]4(C)[C@@H](CC[C@]5(C)[C@@H]4CC=C4[C@@H]6CC(C)(C)CC[C@]6(C(=O)O)CC[C@]45C)[C@]3(C)CO)OC[C@H](O)[C@@H]2O)[C@H](O)[C@H](O)[C@H]1O [Hederine hydrate, α-hederin hydrate] | >0.004 µg/mL | 0.0015 µg/mL | ++ | >0.004 µg/mL | ++ | >0.25 µg/mL | >0.25 µg/mL | 38 pfu/10^5 Cells |  |  |  |  | − | 0.01 µg/mL | 0.0115 µg/mL | 0.0038 µg/mL | CC50 ([7]; Human foreskin fibroblast cells, reduces growth of uninfected cells by 50%): >0.25 µg/mL
